Measured values as given in paper PMC11679793, “Structure-Activity Relationship Study of Majusculamide D: Overcoming Metabolic Instability and Severe Toxicity with a Fluoro Analogue” (Marine Drugs, 2024).
≈ marks a conversion by molar mass, not a printed value. Where two headings read alike, the source gives them in different places.

Assays:
PANC-1 cells = experiment: MTT cell activity assay (inhibitory activity against PANC-1 cells); assay type: cell-based
Procedure: A total of 3000 PANC-1 cells were resuspended in 200 μL of culture medium and seeded into 96-well plates. After 24 h, the cells were treated with the compound and incubated for an additional 72 h. Following the incubation, 20 μL of 5 mg/mL MTT solution (Solarbio, China) was added to each well in the dark, and the cells were incubated for another 4 h. After incubation, the culture medium was discarded, and the wells were washed with PBS to remove any residual medium. Then, 200 μL of DMSO was added to each well to fully dissolve the formazan crystals, and the solution was mixed thoroughly. The absorbance was measured at 492 nm/570 nm, and the data were analyzed using GraphPad Prism.

[1] = Preliminary water solubility test; assay type: physicochemical; settings: thermodynamic from solid, 25 °C, ultrasonic treatment 30 min, visual
PANC-1 xenograft tumor = system: PANC-1 xenograft tumor
Procedure: Furthermore, a xenografted murine subcutaneous tumor model was employed to evaluate the effects of majusculamide D and the optimized analogues 1c and 1n (Figure 1B). PANC1-bearing BALB/c nude mice were separated randomly, with a total of six mice in each group. Gemcitabine was chosen as the positive drug; the mice were then administered intravenous doses of 1c (5 mg/kg), 1n (5 mg/kg), 1a (5 mg/kg), and gemcitabine (20 mg/kg) every other day for 24 days.
A total of 4 × 10^6 PANC-1 cells suspended in 100 μL PBS were subcutaneously injected into the right shoulder region of BALB/c nude mice. When the tumor volume reached approximately 200 mm^3, the mice were euthanized, and the tumor tissues were harvested and designated as F1 generation. Tumor tissues were then cut into small cubes measuring approximately 3 × 3 × 3 mm, which were implanted into new BALB/c mice to propagate the tumors. This procedure was repeated to obtain the F2 generation of tumors. Finally, mice bearing F3 generation transplant tumors were used for drug treatment experiments. When the tumor volume reached approximately 80–100 mm^3, the mice were randomly divided into five groups (n = 6): control group, 5 mg/kg compound 1a group, 5 mg/kg compound 1c group, 5 mg/kg compound 1n group, and 20 mg/kg gemcitabine group. The compounds 1a, 1c, and 1n were dissolved in DMSO and then diluted with 0.9% physiological saline to achieve a final concentration of 0.5 mg/mL as the dosing concentration. Gemcitabine was dissolved directly in 0.9% saline to achieve a final concentration of 2 mg/mL as the dosing concentration. The compounds were administered intravenously every two days, alternating between the left and right tail veins to minimize vein damage. Injections were performed using ultra-fine syringes (30G needles) to reduce stress and ensure consistent delivery. The body weight and tumor volume of the mice were measured every four days. On day 24, the mice were euthanized, and the tumor weights were recorded. Tumor volume (V) was calculated using the formula: V = (ab^2)/2, with “a” representing the long diameter of the tumor and “b” representing the short diameter of the tumor. […] Tumor weight was used to calculate the tumor inhibition rate (Figure 1G).

[2] = Homo sapiens, PANC-1, 72 h, read-out: IC50 (nM), inhibitory activity against PANC-1 cells (Table 1), PANC-1 cells, 72 h incubation, mean ± SD, n = 3
[3] = Homo sapiens, PANC-1 cells, 72 h incubation, mean ± SD, n = 3, Table 2 series, read-out: IC50 (nM), inhibitory activity against PANC-1 cells (Table 2)
[4] = read-out: IC50 (nM), inhibitory activity against PANC-1 cells (Table 1), PANC-1 cells, 72 h incubation, mean ± SD, n = 3
[5] = Homo sapiens, PANC-1 cells, 72 h incubation, mean ± SD, n = 3, read-out: IC50 (nM), inhibitory activity against PANC-1 cells (Table 1)

CCCCC(C)CC(C)C(=O)N(C)C(Cc1ccc(OC)cc1)C(=O)NC(C(=O)N(C)C(C(=O)N1CC(O)CC1C(=O)N1CC=CC1=O)C(C)C)C(C)OC(C)=O (stereo not shown) [Compound 1l]
IC50 (PANC-1 cells; [2]): 134 ± 78.2 nM

CCCC[C@@H](C)C[C@@H](C)C(=O)N(C)[C@@H](Cc1ccc(OC)cc1)C(=O)N[C@H](C(=O)N(C)[C@H](C(=O)N1C[C@@H](O)C[C@H]1C(=O)N1C(=O)C=C[C@@H]1C)C(C)C)[C@@H](C)NC(=O)[C@H](C)N [Compound 16h]
solubility [1]: 360 µg/mL (≈ 429 µM) | IC50 (PANC-1 cells; [3]): 79.9 ± 45.9 nM

CCCC[C@@H](C)C[C@@H](C)C(=O)N(C)[C@@H](Cc1ccc(OC)cc1)C(=O)N[C@H](C(=O)N(C)[C@H](C(=O)N1C[C@@H](O)C[C@H]1C(=O)N1C(=O)C=C[C@@H]1C)C(C)C)[C@@H](C)NC(=O)[C@@H](N)Cc1ccccc1 [Compound 16l]
solubility [1]: 130 µg/mL (≈ 142 µM) | IC50 (PANC-1 cells; [3]): 55.4 ± 14.7 nM

CCCC[C@@H](C)C[C@@H](C)C(=O)N(C)[C@@H](Cc1ccc(OC)cc1)C(=O)N[C@H](C(=O)N(C)[C@H](C(=O)N1C[C@@H](O)C[C@H]1C(=O)N1C(=O)C=C[C@@H]1C)C(C)C)[C@@H](C)NC(=O)CN [Compound 16g]
solubility [1]: 160 µg/mL (≈ 194 µM) | IC50 (PANC-1 cells; [3]): 43.1 ± 29.8 nM

CCCCC(C)CC(C)C(=O)N(C)C(Cc1ccc(OC)cc1)C(=O)NC(C(=O)N(C)C(C(=O)N1CC(F)CC1C(=O)N1C(=O)C=CC1C)C(C)C)C(C)OC(C)=O (stereo not shown) [Compound 1k]
IC50 (PANC-1 cells; [2]): 2.55 ± 0.55 nM

CCCC[C@@H](C)C[C@@H](C)C(=O)N(C)[C@@H](Cc1ccc(OC)cc1)C(=O)N[C@H](C(=O)N(C)[C@H](C(=O)N1C[C@@H](O)C[C@H]1C(=O)N1C(=O)C=C[C@@H]1C)C(C)C)[C@@H](C)NC(=O)[C@@H](N)CO [Compound 16j]
solubility [1]: 360 µg/mL (≈ 421 µM) | IC50 (PANC-1 cells; [3]): 184 ± 33.2 nM

CCCCC(C)CC(C)C(=O)N(C)C(Cc1ccc(OC)cc1)C(=O)NC(C(=O)N(C)C(C(=O)N1CC(O)CC1C(=O)N1C(=O)C=CC1C)C(C)C)C(C)OC(C)=O (stereo not shown) [Compound 1m]
IC50 (PANC-1 cells; [4]): 4.68 ± 0.59 nM

Nc1ccn([C@@H]2O[C@H](CO)[C@@H](O)C2(F)F)c(=O)n1 [Gemcitabine, reference compound]
tumor inhibition rate (%) (PANC-1 xenograft tumor; calculated from tumor weight, day 24, 1a, 1c, 1n 5 mg/kg, gemcitabine 20 mg/kg i.v.): 51.0% | tumor weight (PANC-1 xenograft tumor; day 24, i.v. every other day, 1a, 1n 5 mg/kg, gemcitabine 20 mg/kg, mean ± SD): 0.548 ± 0.153 g | tumor volume (PANC-1 xenograft tumor; mouse, in vivo): 561.1 ± 177.3 mm^3

CCCCC(C)CC(C)C(=O)N(C)C(Cc1ccc(OC)cc1)C(=O)NC(C(=O)N(C)C(C(=O)N1CC(O)CC1C(=O)N1C(=O)C=CC1C)C(C)C)C(C)O (stereo not shown) [Compound 14a]
IC50 (PANC-1 cells; [2]): 1160 ± 195 nM

CCCC[C@@H](C)C[C@@H](C)C(=O)N(C)[C@@H](Cc1ccc(OC)cc1)C(=O)N[C@H](C(=O)N(C)[C@H](C(=O)N1C[C@@H](O)C[C@H]1C(=O)N1C(=O)C=C[C@@H]1C)C(C)C)[C@@H](C)NC(=O)CNC [Compound 16d]
solubility [1]: 810 µg/mL (≈ 964 µM) | IC50 (PANC-1 cells; [3]): 16.2 ± 6.72 nM

CCCCC(C)CC(C)C(=O)N(C)C(Cc1ccc(-c2ccccc2)cc1)C(=O)NC(C(=O)N(C)C(C(=O)N1CC(O)CC1C(=O)N1C(=O)C=CC1C)C(C)C)C(C)OC(C)=O (stereo not shown) [Compound 1j]
IC50 (PANC-1 cells; [2]): < 1 nM | IC50 (PANC-1 cells; [4]): 0.7 ± 0.07 nM

CCCC[C@@H](C)C[C@@H](C)C(=O)N(C)[C@@H](Cc1ccc(OC)cc1)C(=O)N[C@H](C(=O)N(C)[C@H](C(=O)N1C[C@@H](O)C[C@H]1C(=O)N1C(=O)C=C[C@@H]1C)C(C)C)[C@@H](C)NC(=O)[C@@H](N)CCC(N)=O [Compound 16i]
solubility [1]: 530 µg/mL (≈ 591 µM) | IC50 (PANC-1 cells; [3]): 740 ± 713 nM

CCCCC(C)CC(C)C(=O)N(C)C(Cc1ccc(OC)cc1)C(=O)NC(C(=O)N(C)C(C(=O)N1CC(O)CC1C(=O)N1C(=O)C=CC1C)C(C)C)C(C)NC(=S)NC (stereo not shown) [Compound 14b]
IC50 (PANC-1 cells; [5]): 1.06 ± 0.35 nM

CCCCC(C)CC(C)C(=O)N(C)C(Cc1ccc(OC)cc1)C(=O)NC(COC(C)=O)C(=O)N(C)C(C(=O)N1CC(O)CC1C(=O)N1C(=O)C=CC1C)C(C)C (stereo not shown) [Compound 1d]
IC50 (PANC-1 cells; [2]): 2.15 ± 0.37 nM

CCCCC(C)CC(C)C(=O)N(C)C(Cc1ccccc1)C(=O)NC(C(=O)N(C)C(C(=O)N1CC(O)CC1C(=O)N1C(=O)C=CC1C)C(C)C)C(C)OC(C)=O (stereo not shown) [Compound 1h]
IC50 (PANC-1 cells; [2]): 72 ± 21.9 nM

CCCCC(C)CC(C)C(=O)N(C)C(Cc1ccc(OC)cc1)C(=O)NC(C(=O)N(C)C(C(=O)N1CC(O)CC1C(=O)N1C(=O)C=CC1C)C(C)C)C(C)NC(C)=O (stereo not shown) [Compound 1e]
IC50 (PANC-1 cells; [5]): 2.94 ± 0.93 nM

CCCC[C@@H](C)C[C@@H](C)C(=O)N(C)[C@@H](Cc1ccc(OC)cc1)C(=O)N[C@H](C(=O)N(C)[C@H](C(=O)N1C[C@@H](O)C[C@H]1C(=O)N1C(=O)C=C[C@@H]1C)C(C)C)[C@@H](C)NC(=O)C1CCC(=O)N1 (stereo partly shown) [Compound 16k]
solubility [1]: 330 µg/mL (≈ 375 µM) | IC50 (PANC-1 cells; [3]): 472 ± 69.7 nM

CCCC[C@@H](C)C[C@@H](C)C(=O)N(C)[C@@H](Cc1ccc(OC)cc1)C(=O)N[C@H](C(=O)N(C)[C@H](C(=O)N1C[C@@H](O)C[C@H]1C(=O)N1C(=O)C=C[C@@H]1C)C(C)C)[C@@H](C)NC(=O)[C@@H](N)[C@@H](C)O [Compound 16b]
solubility [1]: 410 µg/mL (≈ 471 µM) | IC50 (PANC-1 cells; [3]): 116 ± 54 nM

CCCC[C@@H](C)C[C@@H](C)C(=O)N(C)[C@@H](Cc1ccc(OC)cc1)C(=O)N[C@H](C(=O)N(C)[C@H](C(=O)N1C[C@@H](O)C[C@H]1C(=O)N1C(=O)C=C[C@@H]1C)C(C)C)[C@@H](C)NC(=O)[C@@H](N)Cc1ccc(O)cc1 [Compound 16m]
solubility [1]: 160 µg/mL (≈ 172 µM) | IC50 (PANC-1 cells; [3]): 278 ± 14.9 nM

CCCC[C@@H](C)C[C@@H](C)C(=O)N(C)[C@@H](Cc1ccc(OC)cc1)C(=O)N[C@H](C(=O)N(C)[C@H](C(=O)N1C[C@@H](O)C[C@H]1C(=O)N1C(=O)C=C[C@@H]1C)C(C)C)[C@@H](C)NC(=O)[C@@H](N)CC(C)C [Compound 16e]
solubility [1]: 230 µg/mL (≈ 261 µM) | IC50 (PANC-1 cells; [3]): 34.2 ± 6.36 nM

CCCCC(C)CC(C)C(=O)N(C)C(Cc1ccc(O)cc1)C(=O)NC(C(=O)N(C)C(C(=O)N1CC(O)CC1C(=O)N1C(=O)C=CC1C)C(C)C)C(C)OC(C)=O (stereo not shown) [Compound 14c]
IC50 (PANC-1 cells; [2]): 5.31 ± 1.46 nM

CCCC[C@@H](C)C[C@@H](C)C(=O)N(C)[C@@H](Cc1ccc(OC)cc1)C(=O)N[C@H](C(=O)N(C)[C@H](C(=O)N1C[C@@H](O)C[C@H]1C(=O)N1C(=O)C=C[C@@H]1C)C(C)C)[C@@H](C)NC(=O)[C@@H]1CCCN1 [Compound 16a]
solubility [1]: 210 µg/mL (≈ 242 µM) | IC50 (PANC-1 cells; [3]): 40.8 ± 14.1 nM

CCCC[C@@H](C)C[C@@H](C)C(=O)N(C)[C@@H](Cc1ccc(OC)cc1)C(=O)N[C@H](C(=O)N(C)[C@H](C(=O)N1C[C@@H](O)C[C@H]1C(=O)N1C(=O)C=C[C@@H]1C)C(C)C)[C@@H](C)NC(=O)[C@@H](N)Cc1c[nH]c2ccccc12 [Compound 16c]
solubility [1]: 200 µg/mL (≈ 209 µM) | IC50 (PANC-1 cells; [3]): 34.4 ± 4.5 nM

CCCC[C@@H](C)C[C@@H](C)C(=O)N(C)[C@@H](Cc1ccc(OC)cc1)C(=O)N[C@H](C(=O)N(C)[C@H](C(=O)N1C[C@@H](O)C[C@H]1C(=O)N1C(=O)C=C[C@@H]1C)C(C)C)[C@@H](C)NC(=O)[C@@H](N)CCSC [Compound 16f]
solubility [1]: 170 µg/mL (≈ 189 µM) | IC50 (PANC-1 cells; [3]): 13.1 ± 6.3 nM
